Data: ChEMBL document CHEMBL6092167, “Phosphorylation as an Effective Tool to Improve Stability and Reduce Toxicity of Antimicrobial Peptides” (J Med Chem, 2024)
Values after ≈ are worked out from the molar mass of the structure shown. Active and inactive are the calls of the source. The rule behind the calls is not given here. Non-standard residues stand in square brackets, D forms with d. Residues, ends and D or L forms follow the SMILES beside them. Bip = N[C@@H](Cc1ccc(-c2ccccc2)cc1)C(=O)O; pY = N[C@@H](Cc1ccc(OP(=O)(O)O)cc1)C(=O)O

Tests used:
Pseudomonas aeruginosa = assay: Antibacterial activity against Pseudomonas aeruginosa ATCC 27853 incubated for 18 to 24 hrs by broth microdilution method; format: functional; conditions: time 18-24 hrs
Escherichia coli [1] = assay: Antibacterial activity against Escherichia coli ATCC 25922 in presence of KCl; format: functional, organism-based
[2] = Toxicity in BALB/c mouse assessed as mortality at 220 to 350 mg/kg, ip measured after 14 days; format: organism-based; conditions: in vivo, 336 h, dose 220-350 mg/kg, time 14 day
Cell membrane [3] = assay: Induction of cytoplasmic membrane rupture in Staphylococcus aureus ATCC 25923 assessed as content leakage at 2 times MIC incubated for 30 to 120 mins by SEM analysis; format: subcellular; conditions: time 30-120 min
Cell membrane [4] = assay: Induction of outer membrane permeabilization in Escherichia coli ATCC 25922 assessed as increase in fluorescence intensity incubated for 1 min by NPN dye based microplate reader assay; format: subcellular
Staphylococcus aureus [5] = assay: Antibacterial activity against Staphylococcus aureus ATCC 25923 in presence of FeCl3; format: functional, organism-based
Trypsin = Trypsin (Homo sapiens, UniProt P07477+P07478+P35030); assay: Stability of compound assessed as trypsin (unknown origin) mediated compound degradation; format: ADME, protein assay
Staphylococcus aureus [6] = assay: Antibacterial activity against Staphylococcus aureus ATCC 25923 assessed as fold increase in MIC in presence of Na+; format: functional
Escherichia coli [7] = assay: Antibiofilm activity against Escherichia coli ATCC 25922 assessed as eradication of preformed biofilms incubated for 24 hrs by crystal violet staining based assay; format: functional, organism-based
[8] = Toxicity in ip dosed BALB/c mouse assessed as effect on heart at LD50 dose by H and E staining based assay; format: organism-based; conditions: in vivo
Klebsiella pneumoniae [9] = assay: Antibacterial activity against Klebsiella pneumoniae ATCC 700603 incubated for 18 to 24 hrs by broth microdilution method; format: functional; conditions: time 18-24 hrs
Staphylococcus aureus [10] = assay: Antibacterial activity against Staphylococcus aureus ATCC 25923 infected in BALB/c mouse systemic infection model assessed as reduction in bacterial load in spleen at 21.21 mg/kg, ip pre-infected for 2 hrs followed by compound addition and measured after 8 hrs postinfection; format: functional, organism-based; conditions: time 6.0 hrs
Cell membrane [11] = assay: Induction of cell membrane disruption in Pseudomonas aeruginosa ATCC 27853 at 2 times MIC incubated for 2 hrs by SEM analysis; format: subcellular
Staphylococcus aureus [12] = assay: Antibacterial activity against Staphylococcus aureus ATCC 25923 infected in BALB/c mouse systemic infection model assessed as reduction in bacterial load in kidney at 21.21 mg/kg, ip pre-infected for 2 hrs followed by compound addition and measured after 8 hrs postinfection; format: functional, organism-based; conditions: time 6.0 hrs
Cell membrane [13] = assay: Induction of membrane damage in Pseudomonas aeruginosa ATCC 27853 assessed as change in membrane shape at 2 times MIC incubated for 30 to 120 mins by SEM analysis; format: subcellular; conditions: time 30-120 min
Escherichia coli [14] = assay: Antibacterial activity against Escherichia coli ATCC 25922 assessed as fold increase in MIC in presence of MgCl2; format: functional
Staphylococcus aureus [15] = assay: Antibacterial activity against Staphylococcus aureus 794 incubated for 18 to 24 hrs by broth microdilution method; format: functional; conditions: time 18-24 hrs
[16] = Toxicity in ip dosed BALB/c mouse assessed as liver edema at LD50 dose by H and E staining based assay; format: organism-based; conditions: in vivo
Klebsiella pneumoniae [17] = assay: Antibacterial activity against Klebsiella pneumoniae ATCC 700603 infected in BALB/c mouse lung infection model assessed as increase in mouse survival at 5.31 mg/kg, ip administered twice daily for 3 days and measured for 7 days; format: functional, organism-based; conditions: time 10.0 day
[18] = Toxicity in ip dosed BALB/c mouse assessed as effect on spleen at LD50 dose by H and E staining based assay; format: organism-based; conditions: in vivo
Klebsiella pneumoniae [19] = assay: Antibacterial activity against Klebsiella pneumoniae ATCC 700603 infected in BALB/c mouse lung infection model assessed as alveolar dilation at 5.31 mg/kg, ip administered twice daily for 3 days and measured after 7 days; format: functional, organism-based; conditions: time 10.0 day
Cell membrane [20] = assay: Induction of cytoplasmic membrane rupture in Staphylococcus aureus ATCC 25923 assessed as shrinkage at 2 times MIC incubated for 30 to 120 mins by SEM analysis; format: subcellular; conditions: time 30-120 min
Klebsiella pneumoniae [21] = assay: Antibacterial activity against Klebsiella pneumoniae ATCC 700603 infected in BALB/c mouse lung infection model assessed as removal of bacterial load at 5.31 mg/kg, ip administered twice daily for 3 days and measured after 6 days; format: functional; conditions: time 9 day
Staphylococcus aureus [22] = assay: Antibacterial activity against Staphylococcus aureus ATCC 25923 infected in BALB/c mouse systemic infection model assessed as reduction in bacterial load in spleen at 20 mg/kg, ip pre-infected for 2 hrs followed by compound addition and measured after 8 hrs postinfection; format: functional, organism-based; conditions: time 6.0 hrs
Staphylococcus aureus [23] = assay: Antibacterial activity against Staphylococcus aureus ATCC 25923 infected in BALB/c mouse systemic infection model assessed as reduction in bacterial load in lung at 20 mg/kg, ip pre-infected for 2 hrs followed by compound addition and measured after 8 hrs postinfection; format: functional, organism-based; conditions: time 6.0 hrs
[24] = Toxicity in BALB/c mouse assessed as mortality at 40 to 130 mg/kg, ip measured after 14 days; format: organism-based; conditions: in vivo, 336 h, dose 40-130 mg/kg, time 14 day
Escherichia coli [25] = assay: Antibacterial activity against Escherichia coli ATCC 25922 assessed as fold increase in MIC preincubated with serum for 6 hrs followed by 15 mins inactivation prior to bacteria addition and measured after 18 to 24 hrs; format: functional; conditions: time 18-24 hrs
[26] = Toxicity in ip dosed BALB/c mouse assessed as hemorrhage in lung at LD50 dose by H and E staining based assay; format: organism-based; conditions: in vivo
Staphylococcus aureus [27] = assay: Antibacterial activity against Staphylococcus aureus ATCC 25923 infected in BALB/c mouse systemic infection model assessed as improved alveoli dilation at 20 mg/kg, ip pre-infected for 2 hrs followed by compound addition and measured after 8 hrs postinfection; format: functional, organism-based; conditions: time 6.0 hrs
Klebsiella pneumoniae [28] = assay: Antibacterial activity against Klebsiella pneumoniae ATCC 700603 infected in BALB/c mouse lung infection model assessed as alveolar dilation at 5 mg/kg, ip administered twice daily for 3 days and measured after 7 days; format: functional, organism-based; conditions: time 10.0 day
[29] = Toxicity in ip dosed BALB/c mouse assessed as inflammatory cell infiltration in kidney at LD50 dose by H and E staining based assay; format: organism-based; conditions: in vivo
Klebsiella pneumoniae [30] = assay: Antibacterial activity against Klebsiella pneumoniae ATCC 700603 infected in BALB/c mouse lung infection model assessed as improved alveolar aggregation at 5 mg/kg, ip administered twice daily for 3 days and measured after 7 days; format: functional, organism-based; conditions: time 10.0 day
Staphylococcus aureus [31] = assay: Antibacterial activity against Staphylococcus aureus ATCC 25923 infected in BALB/c mouse systemic infection model assessed as reduction in bacterial load in kidney at 20 mg/kg, ip pre-infected for 2 hrs followed by compound addition and measured after 8 hrs postinfection; format: functional, organism-based; conditions: time 6.0 hrs
Klebsiella pneumoniae [32] = assay: Antibacterial activity against Klebsiella pneumoniae ATCC 700603 infected in BALB/c mouse lung infection model assessed as removal of bacterial load at 5 mg/kg, ip administered twice daily for 3 days and measured after 6 days; format: functional; conditions: time 9 day
Staphylococcus aureus [33] = assay: Bactericidal activity against Staphylococcus aureus ATCC 25923 at 2 times MIC measured upto 1440 mins by time kill assay; format: functional, organism-based
Klebsiella pneumoniae [34] = assay: Antibacterial activity against Klebsiella pneumoniae ATCC 700603 infected in BALB/c mouse lung infection model assessed as increase in mouse survival at 5 mg/kg, ip administered twice daily for 3 days and measured for 7 days; format: functional, organism-based; conditions: time 10.0 day

Question: Which results are given for `CC(C)C[C@H](NC(=O)[C@H](CC(C)C)NC(=O)[C@H](Cc1ccc(OP(=O)(O)O)cc1)NC(=O)[C@H](CCCCN)NC(=O)[C@H](CC(C)C)NC(=O)[C@H](CCCNC(=N)N)NC(=O)[C@H](CCCCN)NC(=O)[C@H](Cc1ccc(-c2ccccc2)cc1)NC(=O)[C@H](CC(C)C)NC(=O)CN)C(N)=O` (H-GL[Bip]KRLK[pY]LL-NH2)?
Answer: MIC (Pseudomonas aeruginosa): 16 µM (≈ 22.5 µg/mL); Activity (Escherichia coli [1]): Active; Compound Showed Excellent Tolerance Towards Salt Environment; Activity [2]: Toxic; Activity (Cell membrane [3]): Active; Activity (Cell membrane [4]): Dose-dependent-effect; Activity (Staphylococcus aureus [5]): Active; Compound Showed Excellent Tolerance Towards Salt Environment; Stability (Trypsin): Stable; Activity (Staphylococcus aureus [6]): Active; Compound Showed Excellent Tolerance Towards Salt Environment; Activity (Escherichia coli [7]): Dose-dependent-effect; Superior Activity Compared To Polymyxin B And Vancomycin; Activity [8]: Toxic; MIC (Klebsiella pneumoniae [9]): 8 µM (≈ 11.2 µg/mL); Activity (Staphylococcus aureus [10]): Active; Activity (Cell membrane [11]): Active; More Potent Than Polymyxin B And Vancomycin; Activity (Staphylococcus aureus [12]): Active; Activity (Cell membrane [13]): Active; fold change (FC) (Escherichia coli [14]): 2; MIC (Staphylococcus aureus [15]): 8 µM (≈ 11.2 µg/mL); Activity [16]: Toxic; Activity (Klebsiella pneumoniae [17]): Active; Comparable Activity To Polymyxin B; Activity [18]: Toxic; Activity (Klebsiella pneumoniae [19]): Active; Activity (Cell membrane [20]): Active; Activity (Klebsiella pneumoniae [21]): 100%

Question: With `CC(C)C[C@H](NC(=O)[C@H](CC(C)C)NC(=O)[C@H](Cc1ccc(O)cc1)NC(=O)[C@H](CCCCN)NC(=O)[C@H](CC(C)C)NC(=O)[C@H](CCCNC(=N)N)NC(=O)[C@H](CCCCN)NC(=O)[C@H](Cc1ccc(-c2ccccc2)cc1)NC(=O)[C@H](CC(C)C)NC(=O)CN)C(N)=O` (H-GL[Bip]KRLKYLL-NH2) as the molecule, how does the Activity (Staphylococcus aureus [22]) read?
Answer: The Activity was “Active”.

Question: And the MIC (Pseudomonas aeruginosa)?
Answer: Its MIC is 8 µM (≈ 10.6 µg/mL).

Question: And the Activity (Staphylococcus aureus [23])?
Answer: The Activity was “Active”.

Question: And the Activity [24]?
Answer: The Activity was “Toxic”.

Question: And the Activity (Cell membrane [3])?
Answer: The Activity was “Active”.

Question: And the “fold change (FC)” value (Escherichia coli [25])?
Answer: Its value is 2.

Question: What about the Activity (Cell membrane [4]) of the same molecule?
Answer: The Activity was “Dose-dependent-effect”.

Question: What about the Stability (Trypsin) of the same molecule?
Answer: The Stability was “Stable”.

Question: What about the Activity [26] of the same molecule?
Answer: The Activity was “Toxic”.

Question: And the Activity (Escherichia coli [7])?
Answer: Its Activity is “Dose-dependent-effect; Superior Activity Compared To Polymyxin B And Vancomycin”.

Question: What about the MIC (Klebsiella pneumoniae [9]) of the same molecule?
Answer: The MIC was 8 µM (≈ 10.6 µg/mL).

Question: And the Activity (Cell membrane [11])?
Answer: Its Activity is “Active; More Potent Than Polymyxin B And Vancomycin”.

Question: And the Activity (Staphylococcus aureus [27])?
Answer: The Activity was “Active”.

Question: And the Activity (Klebsiella pneumoniae [28])?
Answer: The Activity was “Active”.

Question: And the Activity (Cell membrane [13])?
Answer: The Activity was “Active”.

Question: And the Activity [29]?
Answer: Its Activity is “Toxic”.

Question: What about the Activity (Klebsiella pneumoniae [30]) of the same molecule?
Answer: Its Activity is “Active”.

Question: What about the MIC (Staphylococcus aureus [15]) of the same molecule?
Answer: The MIC was 8 µM (≈ 10.6 µg/mL).

Question: And the Activity (Staphylococcus aureus [31])?
Answer: The Activity was “Active”.

Question: And the Activity (Klebsiella pneumoniae [32])?
Answer: The Activity was 100%.

Question: What about the Activity (Staphylococcus aureus [33]) of the same molecule?
Answer: Its Activity is “Active”.

Question: What about the Activity (Klebsiella pneumoniae [34]) of the same molecule?
Answer: The Activity was “Active; Comparable Activity To Polymyxin B”.

Question: And the Activity (Cell membrane [20])?
Answer: Its Activity is “Active”.
